One series deals with MERS-CoV Mpro (Middle East respiratory syndrome-related coronavirus, UniProt K9N7C7). The format is biochemical.
Series [1] can be described thus: pharmacokinetic study 2 mg/kg i.v. The format is in vivo. The conditions noted are these: for CO / MRI / V / AUC(0-t) / clearance / half-life: 2 mg/kg i.v.; for AUC(0-t) / clearance / half-life: in vivo, iv. The text has this:
The bioavailability of the lead compound DZLO8 was also characterized in detail in an external CRO- study and the results verified.

The nature of another series: plasma protein binding. In kind it is in vitro ADME.
Series [2] can be described thus: metabolic stability in mouse microsomes. The following applies: after 30 minutes.
The nature of series [3]: metabolic stability in human microsomes. The conditions noted are these: after 30 minutes.
Series [4] is described as follows: pharmacokinetic study after subcutaneous injection in CD-1 mice.
Another series has as its system EV-A71. Nature of the series: microbe, parasite or virus in culture. The following applies: Enterovirus A, EVA71, read-out: EC50 EV-A71. In kind it is cell-based.
The next series has as its system CVB3. In words: microbe, parasite or virus in culture. The format is cell-based, coxsackievirus B3. The following applies: Enterovirus B, CVB3, read-out: EC50 CVB3.
Another series relates to SARS-CoV. In words: microbe, parasite or virus in culture. The format is cell-based. The conditions noted are these: Severe acute respiratory syndrome coronavirus, Vero C1008, read-out: EC50 SARS-CoV.
A further series deals with MERS-CoV. Nature of the series: microbe, parasite or virus in culture. In kind it is cell-based, MERS coronavirus. The conditions noted are these: Middle East respiratory syndrome-related coronavirus.
In another series the test system is HCoV-229E. Nature of the series: microbe, parasite or virus in culture. The format is cell-based. The conditions noted are these: Human coronavirus 229E, Huh-7, read-out: EC50 HCoV-229E.
[5] abbreviates: CD-1 mice, 20 mg/kg subcutaneous.
[6] abbreviates: CD-1 mice, 20 mg/kg subcutaneous, after 24 hours.

Like-named read-outs stand apart in the source and are kept apart here.

Chain of MERS-CoV Mpro (K9N7C7 3248-3553 limits assumed): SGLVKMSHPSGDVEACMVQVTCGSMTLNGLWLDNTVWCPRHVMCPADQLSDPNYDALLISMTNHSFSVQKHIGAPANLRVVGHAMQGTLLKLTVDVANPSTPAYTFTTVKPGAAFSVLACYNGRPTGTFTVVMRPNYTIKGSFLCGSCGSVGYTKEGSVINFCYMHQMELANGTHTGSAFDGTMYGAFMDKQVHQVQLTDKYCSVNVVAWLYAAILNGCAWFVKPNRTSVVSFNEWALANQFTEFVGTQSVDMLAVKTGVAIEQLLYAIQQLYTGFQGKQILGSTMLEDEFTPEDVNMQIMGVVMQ

What is called IC50 is the point on the concentration scale where inhibition reaches its midpoint. High values mean lower potency, low ones higher potency. Consider `CC(C)(C)OC(=O)Nc1cccn([C@@H](CC2CC2)C(=O)N[C@@H](C[C@@H]2CCNC2=O)C(=O)C(=O)NCc2ccccc2)c1=O` [RHCDS1c], for which the IC50 against MERS-CoV Mpro was determined as 580 nM.
By AUC(0-t) is commonly meant exposure summed from dosing to a finite time, without extrapolation to infinity. High values mean high exposure, low ones low exposure. As a reminder, the clearance is the rate of elimination divided by the concentration. Higher therefore signals efficient removal. For orientation: half-life means how long it takes for the measured level to halve. A higher half-life goes with slow loss. Broadly, the MRT is the average time that molecules of a dose stay in the body. As a reminder, the Cmax is the highest concentration seen after dosing. Turning to `CC(C)(C)OC(=O)Nc1cccn([C@@H](CC2CCCCC2)C(=O)N[C@@H](C[C@@H]2CCNC2=O)C(=O)C(=O)NC2CC2)c1=O` [RHCDS1e], in series [1], the CO was 461.44 ± 345.0 ng/mL, the MRI worked out at 0.47 ± 0.1 h, the V stood at 6.73 ± 0.4 L/kg and the AUC(0-t) was determined as 193 ± 59 ng·h/mL. In [1], this compound showed a clearance of 178 ± 51.2 mL/min/kg and a half-life of 27 ± 6 min. Besides, the “improved half-life compared to the lead compound” value in series [1] (versus DZL08) was determined as 50%. The fraction unbound in the series “plasma protein binding” was 0.06. In addition, in “toxicity in mice”, the toxicity in mice entry was “No evidence of toxicity”. In series [2], the “compound remained metabolically stable” value is recorded as 80%. The “compound remained metabolically stable” value in [3] turned out to be 60%. This compound yielded a mean residence time MRT in series [4] (CD-1, mouse, in vivo, sc, 20 mg/kg) of about 95.4 min. Moreover, in series [4] (setting [5]), the highest concentration (Cmax) came out at 334.50 ng/mL, the “time excreted in urine” value was “up to 24 hours” and the “time the compound remained in plasma” value is given as “about 4 hours”. Further, in series [4] (setting [6]), the “concentration in broncheoalveolar washing fluid (BALF)” value came to 52.7 ng/mL and the “concentration in the lung” value stood at 135 ng per g tissue.
What is called EC50 is the concentration needed to bring the measured effect to its halfway point. For the compound `O=C(/C=C/c1ccccc1)N[C@@H](CC1CCCCC1)C(=O)N[C@@H](C[C@@H]1CCNC1=O)C(=O)C(=O)NCc1ccccc1` [DZL08, reference compound], the EC50 with EV-A71 is 3700 nM; with CVB3, 2800 nM; in the series with SARS-CoV, 2100 nM; with MERS-CoV (Huh-7, read-out: EC50 MERS-CoV) it was 0.4 nM; in the series on MERS-CoV (Vero, read-out: EC50 MERS-CoV), 5000 nM; with HCoV-229E, 1800 nM. In addition, the CO in series [1] stood at 278.34 ± 138.5 ng/mL. This compound also gave an MRI in series [1] of 0.48 ± 0.0 h. The compound further came in with a V in [1] of 8.20 ± 4.1 L/kg. Further, the AUC(0-t) in series [1] amounted to 135 ± 74.6 ng·h/mL. In [1], the clearance is 292 ± 162 mL/min/kg. In addition, the half-life in series [1] was 19.8 min. Moreover, in the series “plasma protein binding” (read-out: plasma protein binding), the fraction unbound amounted to 0.01.
